Results: patent publication US6780853B1, “Neuroactive steroids of the androstane and pregnane series” (priority 1995, dated 2004)
Marks after values point to notes of the source that are not given here.

Assays:
[1] = target: GABA receptor complex (GRC); assay: [35S]TBPS binding in rat cerebral cortex P2 homogenate; conditions: for IC50: concentration to inhibit 50% of control [35S]TBPS binding, 2 nM [35S]TBPS; for IMAX (maximum inhibition): maximum inhibition of [35S]TBPS binding
How it was run: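 Male Sprague-Dawley rat cortical P2 homogenate (0.5 mg protein) incubated with 2 nM [35S]TBPS in 50 mM Na/K phosphate pH 7.4, 200 mM NaCl, with GABA plus (+)bicuculline, 90 min at 25 °C. Filter-bound radioactivity counted; non-specific binding with […]; IC50 and maximal inhibition by nonlinear regression.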

[2] = test system: maximal electroshock tonic seizure; assay: Maximal electroshock test; format: in vivo, mice; conditions: 20 mg/kg, i.p., 10 min, 50% hpbcd
Description: (§1) The anticonvulsant tests are similar to that described above.

[3] = test system: metrazol induced convulsions; assay: Antimetrazol activity in mice; format: in vivo; conditions: 10 mg/kg, 50% hpbcd; for PTZ % Protected: i.p., 10 min; for % Protected: IP, 10 min before metrazol 85 mg/kg
Method: Experiments were also performed to determine the physiological relevance of neuroactive steroid and GABA receptor interactions by assessing the ability of compounds of the present invention to prevent metrazol induced convulsions in mice. Mice were injected with various doses of the test compounds of the invention, 10 minutes prior to the injection of metrazol. The time to onset of myoclonus (presence of forelimb clonic activity) induced by metrazol was determined by observing each mouse for a period of 30 minutes. In control mice, metrazol (85 mg/kg) will induce convulsion in 95% of the animals.
as §1

[4] = test system: time spent on the open-arms; assay: Elevated plus-maze test; format: in vivo, N.I.H. Swiss-Webster mice; conditions: IP, 50% hpbcd, 10 mg/kg
Description: The theoretical basis for the elevated plus-maze test is similar to that of the fight/dark transition test. As it was described previously by Pellow et al. J. Neurosci. Meth. 14:149-167 (1985)), the elevated plus-maze apparatus is designed to utilize the mice's natural aversion to open spaces. The apparatus consists of two open-arms and two enclosed-arms. The elevated plus-maze test allows for two measures of anxiety, the number of entries into the open-arms and the time spent on the open-arms, both expressed as a percentage of the total number of entries and time spent in/on both the open-arms and enclosed-arms.
Male N.I.H Swiss-Webster mice (Harlan, Indianapolis, Ind.) weighing 15-20 g were housed four per cage in polyethylene cages with sawdust bedding. The colony room was environmentally controlled (22° C.) with a 12 hr light/dark cycle (0600-1800 hr). Food and water were available ad libitum, except during testing. The experiments were run from 0700-1500 hr and groups were counterbalanced for time of day effects. Mice were only administered drug or vehicle once.
The method used was previously described (Lister, Psychopharmacol. 92:180-185 (1987)). The apparatus included two open arms perpendicular to two enclosed arms elevated 50 cm from the floor. Each arm was 50 cm long and the walls of the enclosed arms were 40 cm tall. The maze was made completely of black plexiglass. Incandescent 200 W light bulbs were above each of the open arms to produce a strong contrast between the open arms and the enclosed arms.
[…] Swiss-Webster mice were placed in the center of the plus-maze facing an open arm. During the 5 min test period, the number of entries onto the open arms and the enclosed arms, and the time spent in the open arms and enclosed arms were measured. All four paws had to be within an arm for the dependent variable to be measured. Therefore, the time spent in the center of the maze is not counted, so the total time spent in the open arms and the enclosed arms may not equal 5 min.

Estrogen Receptors = target: T1, Estrogen Receptors (Bos taurus, UniProt P49884); assay: Inhibition of 3H-Estradiol Binding to Bovine Uteral Estrogen Receptors; conditions: competitor 10^−6M; 3H-estradiol 0.15 nM
T1 construct: from tissue; host or cells: bovine uterus cytosol
T1 sequence (P49884 1-596): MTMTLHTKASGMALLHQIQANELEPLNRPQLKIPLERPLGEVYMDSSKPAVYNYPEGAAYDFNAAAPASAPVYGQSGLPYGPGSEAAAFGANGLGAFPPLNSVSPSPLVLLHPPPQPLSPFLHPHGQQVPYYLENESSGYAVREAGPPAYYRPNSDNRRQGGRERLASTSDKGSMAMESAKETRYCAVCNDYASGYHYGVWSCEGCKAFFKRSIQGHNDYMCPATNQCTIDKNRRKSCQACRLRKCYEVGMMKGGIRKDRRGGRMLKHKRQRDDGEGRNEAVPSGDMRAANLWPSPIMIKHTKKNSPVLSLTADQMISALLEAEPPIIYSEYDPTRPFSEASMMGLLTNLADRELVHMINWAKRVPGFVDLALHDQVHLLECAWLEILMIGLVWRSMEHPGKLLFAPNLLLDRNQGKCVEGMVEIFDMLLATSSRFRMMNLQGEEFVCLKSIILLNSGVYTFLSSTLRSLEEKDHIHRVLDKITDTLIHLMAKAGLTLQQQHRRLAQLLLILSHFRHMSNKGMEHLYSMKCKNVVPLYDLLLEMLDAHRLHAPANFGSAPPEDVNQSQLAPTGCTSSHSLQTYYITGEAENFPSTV
Method: (§2) Various hormonal activities of representative neuroactive steroids were further studied through testing their potential estrogenic, mineralocorticoid and glucocorticoid activities. These activities were analyzed by monitoring the ability of the compounds to inhibit binding of the steroid hormones to their respective hormone receptors.

Progesterone Receptors = assay: Inhibition of 3H-Progesterone Binding to the Bovine Uteral Progesterone Receptors; conditions: competitor 10^−6M; 3H-progesterone 0.15 nM
[5] = target: T2, Mineralocorticoid Receptors (Rattus norvegicus, UniProt P22199); assay: Inhibition of 3H-Aldosterone Binding to Hippocampal Mineralocorticoid Receptors; conditions: competitor 10^−6M; 3 nM 3H-aldosterone, RU28362 0.5 μM
T2 construct: To isolate the mineralocorticoid receptor, brain cytosol fractions were prepared; from tissue; host or cells: brain (hippocampal) cytosol of adrenalectomized rats
T2 sequence (P22199 1-981): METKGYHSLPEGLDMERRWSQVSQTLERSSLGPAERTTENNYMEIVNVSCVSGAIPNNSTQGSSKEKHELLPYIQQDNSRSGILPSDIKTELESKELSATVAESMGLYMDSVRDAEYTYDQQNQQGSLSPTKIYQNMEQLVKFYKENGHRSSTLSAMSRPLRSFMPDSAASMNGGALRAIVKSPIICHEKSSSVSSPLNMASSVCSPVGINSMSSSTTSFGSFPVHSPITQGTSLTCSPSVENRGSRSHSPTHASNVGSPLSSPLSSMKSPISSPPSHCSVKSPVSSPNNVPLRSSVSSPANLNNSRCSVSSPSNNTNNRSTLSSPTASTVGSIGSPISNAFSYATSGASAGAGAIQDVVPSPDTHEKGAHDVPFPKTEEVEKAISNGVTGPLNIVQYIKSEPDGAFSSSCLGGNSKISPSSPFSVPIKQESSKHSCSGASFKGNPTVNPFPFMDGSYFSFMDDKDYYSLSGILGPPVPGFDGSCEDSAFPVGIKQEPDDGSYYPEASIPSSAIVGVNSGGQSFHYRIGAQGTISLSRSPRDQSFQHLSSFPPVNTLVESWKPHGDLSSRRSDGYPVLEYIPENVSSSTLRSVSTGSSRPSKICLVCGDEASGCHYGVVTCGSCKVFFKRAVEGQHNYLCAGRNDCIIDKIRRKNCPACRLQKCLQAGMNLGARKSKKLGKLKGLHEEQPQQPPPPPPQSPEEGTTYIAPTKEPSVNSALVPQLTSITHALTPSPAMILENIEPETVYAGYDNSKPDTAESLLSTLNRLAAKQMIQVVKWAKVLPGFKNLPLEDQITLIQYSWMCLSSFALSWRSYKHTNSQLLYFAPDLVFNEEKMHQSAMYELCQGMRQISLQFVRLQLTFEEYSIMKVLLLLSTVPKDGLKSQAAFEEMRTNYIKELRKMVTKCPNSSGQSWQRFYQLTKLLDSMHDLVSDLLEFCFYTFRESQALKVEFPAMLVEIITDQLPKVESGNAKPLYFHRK
Method: as §2
In Table 4, rats were adrenalectornized 3 days prior to sacrifice.

loss-of-righting reflex = assay: Anesthetic activity, loss-of-righting reflex; format: in vivo, mice; conditions: iv
Method: The compounds of and used in the invention can also be used for anesthetic indications at high doses. However, the preferred route of administration to induce anesthesia is intravenous (i.v.) administration. In animals, a drug's anesthetic properties is measured by the drug's ability to produce a loss-of-righting reflex. The loss-of-righting reflex is defined as the inability of an animal to right itself within 30 seconds when placed on its back. Mice were administered drug i.v. in the lateral tail vein. Following administration, mice were placed on their backs and observed for loss-of-righting reflex.

| Compound | IC50 [1] [nM] | IMAX (maximum inhibition) [1] [%] | melting point [°C] | Plus-Maze (% Control), time spent on the open-arms [4] [% Control] | % of Inhibition (Progesterone Receptors) [%] | % Protected [3] [%] | Loss-of-Righting Reflex (%) (loss-of-righting reflex; 50% hpbcd, 10 mg/kg) | also measured |
| --- | --- | --- | --- | --- | --- | --- | --- | --- |
| CO[C@H]1CC[C@H]2[C@@H]3CC[C@@H]4C[C@H](O)CC[C@]4(C)[C@H]3CC[C@]12C [3α-Hydroxy-17β-methoxy-5β-androstane] | 62 | 106 | 151 to 156 | 115 |  |  |  | MES % Protected [2]: 87.5^b %; PTZ % Protected [3]: 87.5^c % |
| CC(O)C1CCC2C3CCC4CC(O)CCC4(C)C3CCC12C (stereo not drawn) [5β-pregnan-3α,20α-diol] |  |  |  |  | 0 |  |  | % of Inhibition (Estrogen Receptors): 8%; % of Inhibition [5]: 0% |
| C[C@H](O)[C@H]1CC[C@H]2[C@@H]3CC[C@H]4C[C@H](O)CC[C@]4(C)[C@H]3CC[C@]12C [5α-pregnan-3α,20-diol, 5α-pregnan-3α,20α-diol] |  |  |  |  | 6 |  |  | % of Inhibition (Estrogen Receptors): 0%; % of Inhibition [5]: 0% |
| COCC1(O)CCC2(C)C(CCC3C2CCC2(C)C(OC)CCC32)C1 (stereo not drawn) [3α-Hydroxy-17β-methoxy-3β-methoxymethyl-5α-androstane] | 64 | 100 |  | 130 |  | 87.5 |  | MES % Protected [2]: 18.7^b %; Loss-of-Righting Reflex (%) (loss-of-righting reflex; 10% hpbcd, 10 mg/kg): 50%; PTZ % Protected [3]: 87.5^c % |
| CC(=O)[C@H]1CC[C@H]2[C@@H]3CC[C@H]4C[C@H](O)CC[C@]4(C)[C@H]3C(=O)C[C@]12C [3α-Hydroxy-5α-pregnan-11,20-dione, reference compound] |  |  |  |  |  |  | 37.5 |  |
| C[C@]12CC[C@@H](O)C[C@@H]1CC[C@@H]1[C@@H]2CC[C@]2(C)[C@@H](C(=O)CO)CC[C@@H]12 [3α,21-Dihydroxy-5α-pregnan-20-one, reference compound] | 76 | 100 |  |  | 13 |  |  |  |
| COC1CCC2C3CCC4CC(O)(C(F)(F)F)CCC4C3CCC12C (stereo not drawn) [3α-Hydroxy-17β-methoxy-3β-trifluoromethyl-19-nor-5β-androstane] | 93 | 115 | 40 to 42 | 107 |  |  | 62.5 |  |
| CC(=O)[C@H]1CC[C@H]2[C@@H]3CC[C@H]4C[C@H](O)CC[C@]4(C)[C@H]3CC[C@]12C [3α-Hydroxy-5α-pregnan-20-one, reference compound] | 37 | 95 |  |  | 14 |  |  |  |
| COC1CCC2C3CCC4CC(O)(C(F)(F)F)CCC4(C)C3CCC12C (stereo not drawn) [3α-Hydroxy-17β-methoxy-3β-trifluoromethyl-5β-androstane] [3β-trifluoromethyl-3α-hydroxy-17β-methoxy-5β-androstane] | 216 | 103 | 122 to 127 | 115 |  | 37.5 |  | Loss-of-Righting Reflex (%) (loss-of-righting reflex; 10% hpbcd, 20 mg/kg): 37.5% |
| COC1CCC2C3CCC4CC(O)(C#Cc5ccc(C(C)=O)cc5)CCC4C3CCC12C (stereo not drawn) [3β-(4′-Acetylphenylethynyl)-3α-hydroxy-17β-methoxy-19-nor-5β-androstane] | 8 | 96 | 148 to 150 | 156 |  | 31 |  | MES % Protected [2]: 25^b %; PTZ % Protected [3]: 12.5^c % |
| C=C(C)C#CC1(O)CCC2(C)C(CCC3C2CCC2(C)C(OC)CCC32)C1 (stereo not drawn) [3α-Hydroxy-17β-methoxy-3β-(3′-methylbut-3′-en-1′-ynyl)-5β-androstane] |  |  |  |  |  | 87.5 | 100 |  |
| C#CC1(O)CCC2C(CCC3C2CCC2(C)C(OC)CCC32)C1 (stereo not drawn) [3β-Ethynyl-3α-hydroxy-17β-methoxy-19-nor-5β-androstane] | 56 | 107 | 152 to 154 | 158 |  |  | 100 |  |
| 5α-pregnan-3β,20-trimethyl-3α,20-diol |  |  |  |  | 8 |  |  | % of Inhibition (Estrogen Receptors): 0%; % of Inhibition [5]: 0% |
